{"source": "paper PMC9633586", "about": "(Biochemistry, 2022)", "target": "Cj1438 (Campylobacter jejuni, UniProt Q0P8H6)", "test": "[…] NMR, formation of S-11", "assay_type": "biochemical", "conditions": "20 mM MgCl2, 10 mM ATP, 10 mM D-glucuronate, 50 mM HEPES/K+ pH 8.0, 25 °C", "data": [{"smiles": "N[C@@H](CO)COP(=O)(O)O", "note": "[S-4, S-serinol phosphate]", "values": [{"measurement": "31P NMR, formation of S-11", "value": "Cj1438 catalyzes the formation of compound S-11 using D-glucuronate, MgATP, and S-serinol phosphate (S-4)."}]}]}
